“Also recorded” adds a separate entry of the source. Structures can show the parent of a compound that is named as a salt. Where two headings read alike, the source gives them in different places.
Tests used:
[1] = Shafer et al., Anesthesiology 1991; cited from earlier work
[2] = cited from earlier work; for dosing interval: Hemstrom et al.
humans (analgesia) = experiment: Estimate of human analgesic duration and dose from rat/human dose ratio; conditions: 1.56 μM/kg i.m., calculated from rat
[3] = tested on: Sprague-Dawley rats (antinociceptive threshold); experiment: Rat cold ethanol tail-flick test, pharmacodynamic study of nalbuphine arachidate; format: in vivo; conditions: for analgesic effect (significance): FIGS. 21 and 22
[4] = tested on: Sprague-Dawley rats (nociceptive threshold); format: in vivo, rat
[5] = plasma half time; FIG. 18
humans = experiment: Analgesic effect for human intramuscular injection; format: in vivo; conditions: human i.m.
patients (analgesia) = conditions: 10 mg/65 kg (0.154 mg/kg) i.m., 65-kg patient; cited from earlier work
Water solubility = format: physicochemical
[6] = 25 micromole/kg i.m., prodrugs in sesame oil, Table 2 / FIG. 17
[7] = 25 micromole/kg i.m., Table 2 / FIG. 17

In the case of CO[C@]12CC[C@@]3(C[C@@H]1[C@](C)(O)C(C)(C)C)[C@H]1Cc4ccc(O)c5c4[C@@]3(CCN1CC1CC1)[C@H]2O5 [buprenorphine], the “dose needed to elicit the same analgesic effect” value (“dose needed” below) [1] is listed as 0.3 mg.
For Oc1ccc2c(c1)[C@@]13CCCC[C@@]1(O)[C@@H](C2)N(CC1CCC1)CC3 [butorphanol], the “dose needed” value [1] is listed as 2 mg.
In the case of CCCCCCCCCC(=O)OC1(c2ccc(Cl)cc2)CCN(CCCC(=O)c2ccc(F)cc2)CC1 [haloperidol decanoate], the dosing interval [2] is given as 1-2 times a month.
For O=C(CCCN1CCC(O)(c2ccc(Cl)cc2)CC1)c1ccc(F)cc1 [haloperidol], the dosing interval [2] is given as 2-4 times a day.
In the case of CN1CC[C@]23c4c5ccc(O)c4O[C@H]2[C@@H](O)C=C[C@H]3[C@H]1C5 [morphine], the “dose needed” value [1] is given as 10 mg.
In the case of CCCCCCCCCCCCCCCCCCCC(=O)Oc1ccc2c3c1OC1C(O)CCC4(O)C(C2)N(CC2CCC2)CCC314 (stereo not shown) [nalbuphine arachidate], the “estimated analgesic duration in humans” value (humans (analgesia)) was 4 to 5 days, the “duration of analgesic effect in words” value ([3]; 25 μM/kg i.m., rats) was “longer than that of nalbuphine HCl; also recorded: long duration of analgesic effect; also recorded: very long duration of analgesic effect” and the “duration of analgesic effect” value ([3]; 25 μM/kg i.m., sesame oil suspension, rats) was 4 to 5 days. The “analgesic effect (significance)” value ([3]; 25 μM/kg i.m.) was “significant analgesic effects”.
For O=C(Oc1ccc2c3c1OC1C(O)CCC4(O)C(C2)N(CC2CCC2)CCC314)c1ccccc1 (stereo not shown) [nalbuphine benzoate], the “50% analgesic effect (time)” value [4, 6] was 3.5 days, the “20% analgesic effect (time)” value ([4]; 25 micromole/kg i.m., Table 2) was 4.0 D and the “10% analgesic effect (time)” value [4, 7] was 4.0 D.
In the case of CCCCCCCCCC(=O)Oc1ccc2c3c1O[C@H]1[C@@H](O)CC[C@@]4(O)[C@@H](C2)N(CC2CCC2)CC[C@]314 [nalbuphine decanoate], the “50% analgesic effect (time)” value [4, 6] was 6.7 days, the “20% analgesic effect (time)” value ([4]; 25 micromole/kg i.m., Table 2) was 7.5 D and the “10% analgesic effect (time)” value [4, 7] was 8.2 D. For the same compound, the “increase of duration over nalbuphine hydrochloride” value [5] was 30 times.
For CCCCCCC(=O)Oc1ccc2c3c1OC1C(O)CCC4(O)C(C2)N(CC2CCC2)CCC314 (stereo not shown) [nalbuphine enanthate], the “50% analgesic effect (time)” value [4, 6] was 3.9 days, the “20% analgesic effect (time)” value ([4]; 25 micromole/kg i.m., Table 2) was 3.4 D and the “10% analgesic effect (time)” value [4, 7] was 3.6 D.
With Oc1ccc2c3c1O[C@H]1[C@@H](O)CC[C@@]4(O)[C@@H](C2)N(CC2CCC2)CC[C@]314 [nalbuphine hydrochloride, reference compound] the “10% analgesic effect (time)” value ([4]; rat, in vivo) was 5.0 H, the “10% analgesic effect (time), rat” value ([4]; rat, in vivo) was 2.4 h and the “10% analgesic effect (time), text” value ([4]; rat, in vivo) was 12 h. The “20% analgesic effect (time)” value ([4]; rat, in vivo) was 4.4 H, the “20% analgesic effect (time), rat” value ([4]; rat, in vivo) was 2.1 h and the “50% analgesic effect (time)” value ([4]; rat, in vivo) was 2.5. For the same compound, the “50% analgesic effect (time), rat” value ([4]; rat, in vivo) was 1.1 h, the “10% analgesic effect (time), human” value (humans) was 5.0 h and the “20% analgesic effect (time), human” value (humans) was 4.4 h. For the same compound, the “50% analgesic effect (time), human” value (humans; 0.8 nmole/kg as printed) was 2.5 h, the “analgesic duration (Discussion)” value ([3]; 25 μM/kg (9.86 mg/kg) i.m., rats) was “about 2 hours” and the “duration of analgesic effect” value ([3]; 25 μM/kg i.m., in 0.9% saline, rats) was 0.17 days. For the same compound, the “analgesic effect (significance)” value ([3]; 25 μM/kg i.m.) was “significant analgesic effects” and the “analgesic duration, clinical” value (patients (analgesia)) was 2 to 3 h.
With CC(C)(C)C(=O)Oc1ccc2c3c1OC1C(O)CCC4(O)C(C2)N(CC2CCC2)CCC314 (stereo not shown) [nalbuphine pivalate] the “50% analgesic effect (time)” value [4, 6] was 3.2 days, the “20% analgesic effect (time)” value ([4]; 25 micromole/kg i.m., Table 2) was 3.6 D and the “10% analgesic effect (time)” value [4, 7] was 3.8 D.
With CCC(=O)Oc1ccc2c3c1OC1C(O)CCC4(O)C(C2)N(CC2CCC2)CCC314 (stereo not shown) [nalbuphine propionate monohydrochloride] the water solubility (Water solubility) was “water soluble”.
For CCC(=O)Oc1ccc2c3c1OC1C(O)CCC4(O)C(C2)N(CC2CCC2)CCC314 (stereo not shown) [nalbuphine propionate], the “50% analgesic effect (time)” value [4, 6] was 0.417 days, the “10% analgesic effect (time)” value ([4]; 25 micromole/kg i.m., Table 2) was 12 H and the “20% analgesic effect (time)” value ([4]; 25 micromole/kg i.m., Table 2) was 11 H.
With Oc1ccc2c3c1O[C@H]1[C@@H](O)CC[C@@]4(O)[C@@H](C2)N(CC2CCC2)CC[C@]314 [nalbuphine] the “amount of released nalbuphine free base (FIG. 15)” value (between 17 and 28 hours, p<0.05) was “less in the preparations with sesame oil than with peanut oil ester and the control” and the “release times (FIG. 16)” value (nalbuphine base versus hydrochloride) was “significantly increased”.
In the case of C#C[C@]1(OC(=O)CCCCCC)CC[C@H]2[C@@H]3CCC4=CC(=O)CC[C@@H]4[C@H]3CC[C@@]21C [northisterone enanthate], the “dosing interval in words” value ([2]; Joshi et al.) is listed as “once every 2 months”.

Source: patent US5750534A (priority 1996, dated 1998)
